The molecules below were run against GCase enzyme (Cerezyme, recombinant human GCase) (Homo sapiens, UniProt P04062, R534H).
Sequence of GCase enzyme (Cerezyme, recombinant human GCase) (P04062 40-536 R534H limits assumed): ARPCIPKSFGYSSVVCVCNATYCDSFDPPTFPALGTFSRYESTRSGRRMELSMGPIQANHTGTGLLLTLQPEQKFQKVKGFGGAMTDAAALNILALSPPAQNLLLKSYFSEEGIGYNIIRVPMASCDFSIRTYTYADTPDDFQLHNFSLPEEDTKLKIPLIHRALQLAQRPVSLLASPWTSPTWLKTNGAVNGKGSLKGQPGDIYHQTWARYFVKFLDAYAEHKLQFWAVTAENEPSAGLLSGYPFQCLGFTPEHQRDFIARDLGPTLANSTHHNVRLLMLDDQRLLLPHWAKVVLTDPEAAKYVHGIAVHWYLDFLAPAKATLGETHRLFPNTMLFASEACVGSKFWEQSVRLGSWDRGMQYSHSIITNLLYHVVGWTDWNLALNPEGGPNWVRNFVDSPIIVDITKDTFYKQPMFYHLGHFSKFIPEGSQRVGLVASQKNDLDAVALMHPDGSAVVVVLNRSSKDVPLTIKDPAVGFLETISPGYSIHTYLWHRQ
Method: Assay for Determination of Ki Values for Inhibition of GCase Activity
Various concentrations of test compounds were prepared in DMSO and then diluted into buffer consisting of 50 mM sodium phosphate 0.25% w/v sodium taurodexoycholate, pH 7.0. […] The reaction solution consisted of 25 μL of 6 mM 4-methylumbelliferone-β-D glucopyranoside in 10% DMSO in the same buffer, 12.5 μL of enzyme and 12.5 μL of various concentrations of test compound diluted in buffer. […] The reaction was initiated by addition of enzyme and allowed to proceed for 20 min at 37° C. to assess GCase activity. […] IC50 values were determined by fitting the data to a log [inhibitor concentration] versus response curve using GraphPad Prism.
Work on `CC1(C)NC[C@@H](O)[C@H](O)[C@H]1CO` [(3R,4R,5R)-5-(hydroxymethyl)-6,6-dimethylpiperidine-3,4-diol, reference compound] yielded an IC50 of 3440 nM.
In the case of `C[C@@H]1[C@@H](O)[C@H](O)CNC12CC2` [Example 1, (6R,7R,8S)-8-methyl-4-azaspiro[2.5]octane-6,7-diol], the IC50 is reported as 3.7 nM and the Ki is reported as 2.6 nM.
`OC[C@@H]1[C@@H](O)[C@H](O)CNC12CC2` [Example 2, (6R,7R,8R)-8-(hydroxymethyl)-4-azaspiro[2.5]octane-6,7-diol] was tested, and the IC50 was 13 nM and the Ki was 7 nM.
Molecule `O[C@H]1[C@H](O)CNC2(CC2)[C@@H]1CF` [Example 3, (6R,7R,8S)-8-(fluoromethyl)-4-azaspiro[2.5]octane-6,7-diol] has an IC50 of 6.2 nM and a Ki of 2.1 nM.
With `O[C@H]1[C@H](O)CNC2(CC2)[C@@H]1C(F)F` [Example 4, (6R,7R,8S)-8-(difluoromethyl)-4-azaspiro[2.5]octane-6,7-diol] the IC50 was 6.5 nM and the Ki was 8 nM.
`O[C@H]1[C@H](O)CNC2(CC2)[C@@H]1CCl` [Example 5, (6R,7R,8S)-8-(chloromethyl)-4-azaspiro[2.5]octane-6,7-diol] was tested, and the IC50 was 7.4 nM.
Molecule `COC[C@@H]1[C@@H](O)[C@H](O)CNC12CC2` [Example 6, (6R,7R,8R)-8-(methoxymethyl)-4-azaspiro[2.5]octane-6,7-diol] has an IC50 of 7.5 nM.
For `CO[C@@H]1[C@@H](O)[C@H](O)CNC12CC2` [Example 7, (6R,7S,8S)-8-methoxy-4-azaspiro[2.5]octane-6,7-diol], the IC50 was 32 nM.
Molecule `N#C[C@@H]1[C@@H](O)[C@H](O)CNC12CC2` [Example 8, (6R,7R,8R)-6,7-dihydroxy-4-azaspiro[2.5]octane-8-carbonitrile] has an IC50 of 75 nM.
Molecule `O=C(O)[C@@H]1[C@@H](O)[C@H](O)CNC12CC2` [Example 9, (6R,7R,8S)-6,7-dihydroxy-4-azaspiro[2.5]octane-8-carboxylic acid] has an IC50 of 507 nM.
Work on `CNC(=O)[C@@H]1[C@@H](O)[C@H](O)CNC12CC2` [Example 10, (6R,7R,8S)-6,7-dihydroxy-N-methyl-4-azaspiro[2.5]octane-8-carboxamide] yielded an IC50 of 264 nM.
`O=C(NC1CC1)[C@@H]1[C@@H](O)[C@H](O)CNC12CC2` [Example 11, (6R,7R,8S)-N-cyclopropyl-6,7-dihydroxy-4-azaspiro[2.5]octane-8-carboxamide] was tested, and the IC50 was 462 nM.
In the case of `CC[C@@H]1[C@@H](O)[C@H](O)CNC12CC2` [Example 12, (6R,7R,8S)-8-ethyl-4-azaspiro[2.5]octane-6,7-diol], the IC50 is reported as 6.3 nM.
For `CCC[C@@H]1[C@@H](O)[C@H](O)CNC12CC2` [Example 13, (6R,7R,8S)-8-propyl-4-azaspiro[2.5]octane-6,7-diol], the IC50 was 15 nM.
Work on `O[C@H]1[C@H](O)CNC2(CC2)[C@@H]1CCF` [Example 14, (6R,7R,8S)-8-(2-fluoroethyl)-4-azaspiro[2.5]octane-6,7-diol] yielded an IC50 of 27 nM.
`C=C[C@@H]1[C@@H](O)[C@H](O)CNC12CC2` [Example 16, (6R,7R,8S)-8-vinyl-4-azaspiro[2.5]octane-6,7-diol] gave an IC50 of 6.8 nM and a Ki of 7.6 nM.
`O[C@H]1[C@H](O)CNC2(CC2)[C@@H]1/C=C\F` [Example 17, (6R,7R,8S)-8-((Z)-2-fluorovinyl)-4-azaspiro[2.5]octane-6,7-diol] gave an IC50 of 36 nM.
Molecule `O[C@H]1[C@H](O)CNC2(CC2)[C@@H]1/C=C/F` [Example 18, (6R,7R,8S)-8-((E)-2-fluorovinyl)-4-azaspiro[2.5]octane-6,7-diol] has an IC50 of 20 nM.
`O[C@H]1[C@H](O)CNC2(CC2)[C@@H]1C=C(F)F` [Example 19, (6R,7R,8S)-8-(2,2-difluorovinyl)-4-azaspiro[2.5]octane-6,7-diol] was tested, and the IC50 was 75 nM.
With `C#C[C@@H]1[C@@H](O)[C@H](O)CNC12CC2` [Example 20, (6R,7R,8S)-8-ethynyl-4-azaspiro[2.5]octane-6,7-diol] the IC50 was 13 nM and the Ki was 7.9 nM.
In the case of `CC#C[C@@H]1[C@@H](O)[C@H](O)CNC12CC2` [Example 21, (6R,7R,8S)-8-(prop-1-yn-1-yl)-4-azaspiro[2.5]octane-6,7-diol], the IC50 is reported as 9.7 nM and the Ki is reported as 6.7 nM.
In the case of `CCC#C[C@@H]1[C@@H](O)[C@H](O)CNC12CC2` [Example 22, (6R,7R,8S)-8-(but-1-yn-1-yl)-4-azaspiro[2.5]octane-6,7-diol], the IC50 is reported as 2.4 nM.
Molecule `CCCC#C[C@@H]1[C@@H](O)[C@H](O)CNC12CC2` [Example 23, (6R,7R,8S)-8-(pent-1-yn-1-yl)-4-azaspiro[2.5]octane-6,7-diol] has an IC50 of 6.7 nM.
`OCC#C[C@@H]1[C@@H](O)[C@H](O)CNC12CC2` [Example 24, (6R,7R,8S)-8-(3-hydroxyprop-1-yn-1-yl)-4-azaspiro[2.5]octane-6,7-diol] showed an IC50 of 17 nM.
For `O[C@H]1[C@H](O)CNC2(CC2)[C@@H]1C#CCF` [Example 25, (6R,7R,8S)-8-(3-fluoroprop-1-yn-1-yl)-4-azaspiro[2.5]octane-6,7-diol], the IC50 was 16 nM and the Ki was 15 nM.
Work on `O[C@H]1[C@H](O)CNC2(CC2)[C@@H]1C#CC(F)F` [Example 26, (6R,7R,8S)-8-(3,3-difluoroprop-1-yn-1-yl)-4-azaspiro[2.5]octane-6,7-diol] yielded an IC50 of 22 nM and a Ki of 17 nM.
Work on `O[C@H]1[C@H](O)CNC2(CC2)[C@@H]1C#CCCF` [Example 27, (6R,7R,8S)-8-(4-fluorobut-1-yn-1-yl)-4-azaspiro[2.5]octane-6,7-diol] yielded an IC50 of 2.5 nM.
For `O[C@H]1[C@H](O)CNC2(CC2)[C@@H]1C#CCC(F)F` [Example 28, (6R,7R,8S)-8-(4,4-difluorobut-1-yn-1-yl)-4-azaspiro[2.5]octane-6,7-diol], the IC50 was 11 nM.

Reference: US9796680B2, “Glucocerebrosidase modulators and uses thereof” (Alectos Therapeutics Inc., priority 2013, dated 2017)
